From ChEMBL document CHEMBL5346877, “A-ring-fused pyrazoles of dihydrotestosterone targeting prostate cancer cells via the downregulation of the androgen receptor” (Eur J Med Chem, 2023)
Calls of active or inactive are those of the source. The calls are words filed in the database; no cut-off is given here.

Columns and labels:
LAPC4 [1] = assay: Downregulation of PSA protein expression in human LAPC4 cells at 10 uM incubated for 24 hrs by immunoblotting analysis; format: functional, cell-based
LAPC4 [2] = assay: Inhibition of colony formation in human LAPC4 cells at 10 uM incubated for 10 days by crystal violet staining based assay; format: functional; details: LAPC4, 240 h, time 10 day
DU-145 = assay: Cytotoxicity against human DU-145 cells assessed as cell viability at 20 uM incubated for 72 hrs by resazurin dye based microplate reader assay; format: functional; details: read-out: Activity
CWR22R = assay: Cytotoxicity against human 22Rv1 cells assessed as cell viability at 20 uM incubated for 72 hrs by resazurin dye based microplate reader assay; format: functional; details: read-out: Activity
[3] = Downregulation of AR protein expression in human LAPC4 cells assessed as AR levels at 10 uM incubated for 24 hrs by immunoblotting analysis; format: functional
LAPC4 [4] = assay: Downregulation of Nkx3.1 protein expression in human LAPC4 cells at 10 uM incubated for 24 hrs by immunoblotting analysis; format: functional, cell-based
LAPC4 [5] = assay: Cytotoxicity against human LAPC4 cells assessed as cell viability at 20 uM incubated for 72 hrs by resazurin dye based microplate reader assay; format: functional; details: read-out: Activity
LAPC4 [6] = assay: Inhibition of colony formation in human LAPC4 cells at 5 uM incubated for 10 days by crystal violet staining based assay; format: functional, cell-based; details: time 10.0 day

Row | Structure (SMILES) | Activity (LAPC4 [1]) | inhibition at 10 µM (LAPC4 [2]) | viability at 20 µM (DU-145) | viability at 20 µM (CWR22R) | Activity [3] | Activity (LAPC4 [4]) | viability at 20 µM (LAPC4 [5]) | inhibition (LAPC4 [6])
1 | Cc1c2c(nn1C)C[C@@H]1CC[C@@H]3[C@H](CC[C@]4(C)[C@@H](O)CC[C@@H]34)[C@@]1(C)C2 | inactive | 36% | 98% | 52% | 98% | inactive | 52% | 
2 | COc1ccc(-n2cc3c(n2)C[C@@H]2CC[C@@H]4[C@H](CC[C@]5(C)[C@@H](O)CC[C@@H]45)[C@@]2(C)C3)cc1 | inactive | 65% | ≥ 100% | ≥ 100% | >=100% | inactive | 99% | 
3 | C[C@]12Cc3cnn(-c4ccccc4)c3C[C@@H]1CC[C@@H]1[C@@H]2CC[C@]2(C)[C@@H](O)CC[C@@H]12 | Active | 1% | 97% | 36% | >=100% | Active | 60% | 
4 | Cc1ccc(-n2ncc3c2C[C@@H]2CC[C@@H]4[C@H](CC[C@]5(C)[C@@H](O)CC[C@@H]45)[C@@]2(C)C3)cc1 | Active | 0% | 96% | 97% | >=100% | Active | 70% | 
5 | C[C@]12Cc3cn(-c4ccccc4)nc3C[C@@H]1CC[C@@H]1[C@@H]2CC[C@]2(C)[C@@H](O)CC[C@@H]12 | inactive | 59% | ≥ 100% | ≥ 100% | >=100% | inactive | 100% | 
6 | C[C@]12Cc3cn(-c4ccc(Br)cc4)nc3C[C@@H]1CC[C@@H]1[C@@H]2CC[C@]2(C)[C@@H](O)CC[C@@H]12 | inactive | 24% | ≥ 100% | 83% | >=100% | inactive | 79% | 
7 | C[C@]12Cc3cn(-c4ccc(C#N)cc4)nc3C[C@@H]1CC[C@@H]1[C@@H]2CC[C@]2(C)[C@@H](O)CC[C@@H]12 | inactive | 76% | 97% | 94% | >=100% | inactive | 93% | 
8 | Cn1nc2c(c1-c1ccccc1)C[C@@]1(C)[C@@H](CC[C@@H]3[C@@H]1CC[C@]1(C)C(=O)CC[C@@H]31)C2 |  | 21% | ≥ 100% | 68% | 65% |  | 36% | Active
9 | C[C@]12Cc3c(nn(-c4ccccc4)c3-c3ccc(Cl)cc3)C[C@@H]1CC[C@@H]1[C@@H]2CC[C@]2(C)C(=O)CC[C@@H]12 | inactive | 91% | 98% | 93% | >=100% | inactive | 83% | 
10 | Cc1ccc(-n2cc3c(n2)C[C@@H]2CC[C@@H]4[C@H](CC[C@]5(C)[C@@H](O)CC[C@@H]45)[C@@]2(C)C3)cc1 | inactive | 42% | 100% | ≥ 100% | >=100% | inactive | ≥ 100% | 
11 | C[C@]12Cc3c(nn(-c4ccccc4)c3-c3ccc(O)cc3)C[C@@H]1CC[C@@H]1[C@@H]2CC[C@]2(C)[C@@H](O)CC[C@@H]12 | inactive | 22% | 57% | 37% | >=100% | inactive | 63% | 
12 | COc1ccc(-c2c3c(nn2C)C[C@@H]2CC[C@@H]4[C@H](CC[C@]5(C)C(=O)CC[C@@H]45)[C@@]2(C)C3)cc1 |  | 34% | 97% | 58% | >=100% |  | 35% | Active
13 | C[C@]12Cc3c(nn(-c4ccccc4)c3-c3ccccc3)C[C@@H]1CC[C@@H]1[C@@H]2CC[C@]2(C)C(=O)CC[C@@H]12 | inactive | 19% | 19% | 19% | >=100% | inactive | 61% | 
14 | Cn1nc2c(c1-c1ccc(Br)cc1)C[C@@]1(C)[C@@H](CC[C@@H]3[C@@H]1CC[C@]1(C)[C@@H](O)CC[C@@H]31)C2 |  | 16% | 94% | 21% | 79% |  | 42% | Active
15 | C[C@]12Cc3cnn(-c4ccc(Cl)cc4)c3C[C@@H]1CC[C@@H]1[C@@H]2CC[C@]2(C)[C@@H](O)CC[C@@H]12 | Active | 0% | 91% | 80% | >=100% | Active | 49% | 
16 | C[C@]12Cc3cn(-c4ccc(F)cc4)nc3C[C@@H]1CC[C@@H]1[C@@H]2CC[C@]2(C)[C@@H](O)CC[C@@H]12 | inactive | 66% | ≥ 100% | ≥ 100% | >=100% | inactive | 95% | 
17 | Cc1c2c(nn1C)C[C@@H]1CC[C@@H]3[C@H](CC[C@]4(C)C(=O)CC[C@@H]34)[C@@]1(C)C2 | inactive | 67% | ≥ 100% | 103% | 86% | inactive | 53% | 
18 | C[C@]12Cc3c(nn(-c4ccccc4)c3-c3ccc(Cl)cc3)C[C@@H]1CC[C@@H]1[C@@H]2CC[C@]2(C)[C@@H](O)CC[C@@H]12 | inactive | 47% | 5% | 4% | >=100% | inactive | 30% | 
19 | C[C@]12Cc3c(nn(-c4ccccc4)c3-c3ccc(O)cc3)C[C@@H]1CC[C@@H]1[C@@H]2CC[C@]2(C)C(=O)CC[C@@H]12 | inactive | 39% | 94% | 57% | >=100% | inactive | 67% | 
20 | C[C@]12Cc3cn(-c4ccc([N+](=O)[O-])cc4)nc3C[C@@H]1CC[C@@H]1[C@@H]2CC[C@]2(C)[C@@H](O)CC[C@@H]12 | inactive | 93% | 99% | ≥ 100% | >=100% | inactive | 96% | 
21 | C[C@]12Cc3cn(-c4ccc(Cl)cc4)nc3C[C@@H]1CC[C@@H]1[C@@H]2CC[C@]2(C)[C@@H](O)CC[C@@H]12 | inactive | 98% | ≥ 100% | ≥ 100% | >=100% | inactive | 82% | 
22 | Cc1ccc(-c2c3c(nn2C)C[C@@H]2CC[C@@H]4[C@H](CC[C@]5(C)C(=O)CC[C@@H]45)[C@@]2(C)C3)cc1 |  | 23% | ≥ 100% | 73% | 92% |  | 34% | Active
